Measurements from patent publication EP4745135A1 (Gluetacs Therapeutics (Shanghai) Co., Ltd., priority 2023, dated 2025).

Legend:
GSPT1 = test: Western blot, degradation of substrate protein in hPBMCs; assay type: cell-based, Human
Protocol: (§1) Conventional Western blot assay was performed to evaluate the effects of the compounds of the present disclosure on the expression of target proteins in cells. • (1) Cell Seeding and Protein Harvesting: Human peripheral blood mononuclear cells (hPBMCs) at a density of 1×10^6 cells/mL were thawed according to the PBMC Recovery Protocol (Milecell Biotechnologies Inc, Shanghai). […] After 24 hours of compounds treatment, cells were harvested and lysed in RIPA protein lysate containing protease inhibitors on ice for 30 min, followed by centrifugation. The supernatant was aspirated as the extracted total cell protein. The protein concentration of the supernatant was determined using the conventional BCA (Bicinchoninic Acid) assay. • (2) To the collected supernatant, 5X SDS sample loading buffer was added, followed by denaturation at 95°C for 5 minutes. The denatured samples were then separated by SDS-PAGE electrophoresis on a polyacrylamide gel, transferred onto a nitrocellulose membrane (0.45 µm NC membrane), blocked with blocking buffer at room temperature for 1 hour, and subjected to antibody incubation and development procedures according to the antibody manufacturer's instructions (Cell Signaling Technology Company).
(§2) Half-Maximal Degradation Concentration value (the drug concentration required for degrading proteins by 50%, abbreviated as DC50) reads method: comparing the grayscale values of Western blot bands from drug-treated samples with those from blank DMSO-treated controls, and identifying the drug concentration range at which the grayscale value is half that of the DMSO-treated control bands.
(§3) DC50 values can be calculated using ImageJ software to measure grayscale values of Western blot bands from drug-treated samples. The concentration-response curve is fitted to estimate the drug concentration corresponding to half the grayscale value.
(§4) Target protein remaining (%) refers to the percentage of target protein remaining in cells after treatment with protein degrader compounds.
(§5) Calculation method for target protein remaining (%): Use ImageJ software to measure grayscale values of Western blot bands from drug (protein degrader)-treated samples. The grayscale value of drug-treated bands is divided by that of internal control protein bands, and the resulting quotient is normalized to obtain the relative percentage of remaining target protein after protein degrader treatment.
(§6) Target protein degradation rate (%) = 1−target protein remaining (%). [formula]

WEE1 = molecular target: T1, WEE1 (Homo sapiens, UniProt P30291+Q96SW2); test: as above; assay type: cell-based
T1 construct: effects of the compounds of the present disclosure on the expression of target proteins in cells; endogenous in cells; host or cells: human PBMCs (Milecell Biotechnologies)
T1 sequence (P30291 whole entry): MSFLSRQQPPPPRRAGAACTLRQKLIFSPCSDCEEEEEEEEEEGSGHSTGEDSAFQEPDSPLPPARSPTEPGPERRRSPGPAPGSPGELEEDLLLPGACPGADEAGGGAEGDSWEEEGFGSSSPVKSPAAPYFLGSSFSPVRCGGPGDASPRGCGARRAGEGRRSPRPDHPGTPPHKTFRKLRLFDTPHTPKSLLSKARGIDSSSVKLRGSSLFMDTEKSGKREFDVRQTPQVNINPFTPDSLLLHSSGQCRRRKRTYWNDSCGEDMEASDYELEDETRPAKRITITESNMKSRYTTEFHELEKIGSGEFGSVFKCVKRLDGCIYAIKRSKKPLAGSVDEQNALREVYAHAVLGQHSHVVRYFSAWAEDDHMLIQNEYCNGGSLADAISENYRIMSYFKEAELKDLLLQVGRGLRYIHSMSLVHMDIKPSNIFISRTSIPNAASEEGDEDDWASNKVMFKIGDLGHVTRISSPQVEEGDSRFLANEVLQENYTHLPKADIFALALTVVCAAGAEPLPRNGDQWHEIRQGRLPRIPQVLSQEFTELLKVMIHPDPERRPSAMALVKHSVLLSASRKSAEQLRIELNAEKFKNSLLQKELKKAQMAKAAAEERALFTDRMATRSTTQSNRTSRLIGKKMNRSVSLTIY
T1 sequence (Q96SW2 whole entry): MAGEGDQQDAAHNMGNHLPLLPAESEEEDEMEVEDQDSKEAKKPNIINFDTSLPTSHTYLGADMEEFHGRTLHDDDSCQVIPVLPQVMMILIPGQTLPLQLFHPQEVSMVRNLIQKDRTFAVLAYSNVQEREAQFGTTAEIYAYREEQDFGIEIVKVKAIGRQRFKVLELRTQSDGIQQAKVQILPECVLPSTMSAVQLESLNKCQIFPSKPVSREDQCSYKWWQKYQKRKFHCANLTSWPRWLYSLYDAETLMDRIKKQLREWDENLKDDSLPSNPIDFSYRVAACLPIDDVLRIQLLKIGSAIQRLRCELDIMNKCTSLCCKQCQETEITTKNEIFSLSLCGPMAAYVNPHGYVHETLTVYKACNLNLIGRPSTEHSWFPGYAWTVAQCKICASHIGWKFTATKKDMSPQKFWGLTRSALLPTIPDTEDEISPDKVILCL
T1 sequence (Q16531 whole entry partner): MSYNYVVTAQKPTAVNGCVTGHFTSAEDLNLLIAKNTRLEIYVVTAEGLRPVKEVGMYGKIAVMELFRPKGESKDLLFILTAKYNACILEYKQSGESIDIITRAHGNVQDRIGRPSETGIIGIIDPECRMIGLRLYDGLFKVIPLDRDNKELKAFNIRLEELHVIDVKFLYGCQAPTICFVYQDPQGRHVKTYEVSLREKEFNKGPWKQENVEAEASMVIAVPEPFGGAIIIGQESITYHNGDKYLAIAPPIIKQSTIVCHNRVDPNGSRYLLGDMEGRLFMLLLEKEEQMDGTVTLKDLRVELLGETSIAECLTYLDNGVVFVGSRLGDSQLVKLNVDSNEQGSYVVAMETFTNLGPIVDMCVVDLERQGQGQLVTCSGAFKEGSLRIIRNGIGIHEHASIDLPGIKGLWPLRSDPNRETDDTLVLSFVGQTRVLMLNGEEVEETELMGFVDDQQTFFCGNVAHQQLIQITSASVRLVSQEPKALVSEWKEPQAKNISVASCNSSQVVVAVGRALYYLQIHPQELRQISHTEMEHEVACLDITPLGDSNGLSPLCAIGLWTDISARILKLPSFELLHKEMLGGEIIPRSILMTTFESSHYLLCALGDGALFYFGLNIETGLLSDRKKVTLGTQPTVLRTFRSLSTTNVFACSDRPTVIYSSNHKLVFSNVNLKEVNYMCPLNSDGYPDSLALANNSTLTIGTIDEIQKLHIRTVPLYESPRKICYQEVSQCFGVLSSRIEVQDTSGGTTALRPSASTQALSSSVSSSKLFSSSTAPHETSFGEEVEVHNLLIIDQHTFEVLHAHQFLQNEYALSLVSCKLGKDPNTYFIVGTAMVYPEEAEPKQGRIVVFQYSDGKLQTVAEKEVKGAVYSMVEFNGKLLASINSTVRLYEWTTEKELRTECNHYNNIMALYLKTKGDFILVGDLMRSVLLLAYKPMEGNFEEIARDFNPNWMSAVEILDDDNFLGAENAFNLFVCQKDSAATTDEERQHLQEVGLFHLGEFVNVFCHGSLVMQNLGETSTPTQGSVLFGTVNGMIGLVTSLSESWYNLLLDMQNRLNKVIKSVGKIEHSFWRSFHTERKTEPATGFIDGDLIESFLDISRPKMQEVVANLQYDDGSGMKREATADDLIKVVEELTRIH
Protocol: as §1, §2, §3, §4, §5, §6

IKZF3 = molecular target: T2, IKZF3 (Homo sapiens, UniProt Q96SW2+Q9UKT9); test: as above; assay type: cell-based
T2 construct: effects of the compounds of the present disclosure on the expression of target proteins in cells; endogenous in cells; host or cells: human PBMCs (Milecell Biotechnologies)
T2 sequence (Q9UKT9 whole entry): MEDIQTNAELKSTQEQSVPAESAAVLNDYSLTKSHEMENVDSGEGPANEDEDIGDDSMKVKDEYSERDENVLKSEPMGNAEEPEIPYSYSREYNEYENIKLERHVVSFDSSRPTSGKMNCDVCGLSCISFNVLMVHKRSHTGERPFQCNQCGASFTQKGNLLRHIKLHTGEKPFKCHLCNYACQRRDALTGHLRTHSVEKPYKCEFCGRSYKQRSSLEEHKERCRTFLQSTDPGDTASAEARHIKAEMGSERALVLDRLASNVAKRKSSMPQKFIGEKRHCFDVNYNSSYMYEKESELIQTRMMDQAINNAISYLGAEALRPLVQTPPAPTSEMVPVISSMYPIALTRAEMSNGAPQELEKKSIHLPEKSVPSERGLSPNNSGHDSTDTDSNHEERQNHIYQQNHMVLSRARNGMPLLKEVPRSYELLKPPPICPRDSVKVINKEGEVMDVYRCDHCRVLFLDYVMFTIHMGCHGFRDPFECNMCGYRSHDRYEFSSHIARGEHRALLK
T2 sequence (Q96SW2 whole entry): as the sequence (Q96SW2 whole entry) above
T2 sequence (Q16531 whole entry partner): as the sequence (Q16531 whole entry partner) above
Protocol: as §1, §2, §3, §4, §5, §6

IKZF2 = molecular target: T3, IKZF2 (Homo sapiens, UniProt Q96SW2+Q9UKS7); test: as above; assay type: cell-based
T3 construct: effects of the compounds of the present disclosure on the expression of target proteins in cells; endogenous in cells; host or cells: human PBMCs (Milecell Biotechnologies)
T3 sequence (Q9UKS7 whole entry): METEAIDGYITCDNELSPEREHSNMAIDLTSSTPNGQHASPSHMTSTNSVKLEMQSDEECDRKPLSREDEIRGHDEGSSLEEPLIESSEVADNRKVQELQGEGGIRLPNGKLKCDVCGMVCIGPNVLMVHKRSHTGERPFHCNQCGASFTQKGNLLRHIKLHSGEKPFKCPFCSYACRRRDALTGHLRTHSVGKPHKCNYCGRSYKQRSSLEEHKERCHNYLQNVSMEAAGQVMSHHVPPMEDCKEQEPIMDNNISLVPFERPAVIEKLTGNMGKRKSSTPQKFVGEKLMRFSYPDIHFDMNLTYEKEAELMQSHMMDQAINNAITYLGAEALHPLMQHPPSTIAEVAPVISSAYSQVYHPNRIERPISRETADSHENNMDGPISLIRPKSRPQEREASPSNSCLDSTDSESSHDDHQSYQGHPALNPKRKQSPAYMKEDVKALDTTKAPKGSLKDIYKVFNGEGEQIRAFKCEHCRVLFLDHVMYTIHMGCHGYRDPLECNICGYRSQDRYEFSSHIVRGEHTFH
T3 sequence (Q96SW2 whole entry): as the sequence (Q96SW2 whole entry) above
T3 sequence (Q16531 whole entry partner): as the sequence (Q16531 whole entry partner) above
Protocol: as §1, §2, §3, §4, §5, §6

CK1α = molecular target: T4, CK1α (Homo sapiens, UniProt P48729+Q96SW2); test: as above; assay type: cell-based
T4 construct: effects of the compounds of the present disclosure on the expression of target proteins in cells; endogenous in cells; host or cells: human PBMCs (Milecell Biotechnologies)
T4 sequence (P48729 whole entry): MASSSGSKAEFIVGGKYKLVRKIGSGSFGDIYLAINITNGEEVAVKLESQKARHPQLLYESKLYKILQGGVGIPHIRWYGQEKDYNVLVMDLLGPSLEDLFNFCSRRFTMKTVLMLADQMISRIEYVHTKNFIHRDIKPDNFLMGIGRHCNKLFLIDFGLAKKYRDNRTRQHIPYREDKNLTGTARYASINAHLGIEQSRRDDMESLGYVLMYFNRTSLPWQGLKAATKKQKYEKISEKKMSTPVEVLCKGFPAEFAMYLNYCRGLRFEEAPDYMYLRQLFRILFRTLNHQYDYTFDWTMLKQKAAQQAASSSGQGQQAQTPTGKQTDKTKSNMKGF
T4 sequence (Q96SW2 whole entry): as the sequence (Q96SW2 whole entry) above
T4 sequence (Q16531 whole entry partner): as the sequence (Q16531 whole entry partner) above
Protocol: as §1, §2, §3, §4, §5, §6

IKZF1 = molecular target: T5, IKZF1 (Homo sapiens, UniProt Q13422+Q96SW2); test: as above; assay type: cell-based
T5 construct: effects of the compounds of the present disclosure on the expression of target proteins in cells; endogenous in cells; host or cells: human PBMCs (Milecell Biotechnologies)
T5 sequence (Q13422 whole entry): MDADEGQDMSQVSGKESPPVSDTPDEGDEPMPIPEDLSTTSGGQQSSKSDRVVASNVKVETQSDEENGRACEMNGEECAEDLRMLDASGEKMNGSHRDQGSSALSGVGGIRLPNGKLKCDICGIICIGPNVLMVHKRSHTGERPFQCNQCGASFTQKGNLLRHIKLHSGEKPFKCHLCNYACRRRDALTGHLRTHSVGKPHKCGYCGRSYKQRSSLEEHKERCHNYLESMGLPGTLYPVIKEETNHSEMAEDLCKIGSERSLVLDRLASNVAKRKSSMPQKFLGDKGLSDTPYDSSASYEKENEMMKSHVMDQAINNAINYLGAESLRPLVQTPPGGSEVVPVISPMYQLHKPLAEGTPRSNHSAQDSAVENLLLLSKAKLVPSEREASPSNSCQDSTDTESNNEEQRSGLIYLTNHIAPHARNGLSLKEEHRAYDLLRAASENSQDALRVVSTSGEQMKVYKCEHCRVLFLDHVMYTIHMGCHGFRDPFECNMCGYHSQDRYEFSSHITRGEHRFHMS
T5 sequence (Q96SW2 whole entry): as the sequence (Q96SW2 whole entry) above
T5 sequence (Q16531 whole entry partner): as the sequence (Q16531 whole entry partner) above
Protocol: as §1, §2, §3, §4, §5, §6

[1] = molecular target: T6, human Cereblon WT GST-tagged protein (Homo sapiens, UniProt Q96SW2); test: CRBN-binding affinity, HTRF (CEREBLON BINDING kit); details: CRBN binding, HTRF, 3 hours at room temperature; read-out: HTRF IC50
T6 construct: purchased CISBIO 64BDCRBNPEH
T6 sequence (Q96SW2 whole entry): as the sequence (Q96SW2 whole entry) above

[2] = 24 hours treatment, compounds at 50 nM and 500 nM (concentration behind the class not stated)
[3] = Western blot, 24 hours of compound treatment, compounds tested at 50 nM and 500 nM (concentration for the table not stated)

IC50 [1] [nM] | Structure (SMILES) | GSPT1 substrate protein remaining % (GSPT1; [2]) | Wee1 substrate protein remaining % (WEE1; [2]) | IKZF3 substrate protein remaining % (IKZF3; [2]) | IKZF2 substrate protein remaining % (IKZF2; [2]) | CK1α substrate protein remaining % (CK1α; [2]) | IKZF 1 substrate protein remaining % (IKZF1; [2]) | GSPT1 substrate protein remaining % (GSPT1; [3]) | Wee1 substrate protein remaining % (WEE1; [3]) | IKZF3 substrate protein remaining % (IKZF3; [3]) | IKZF2 substrate protein remaining % (IKZF2; [3]) | CK1α substrate protein remaining % (CK1α; [3]) | IKZF 1 substrate protein remaining % (IKZF1; [3])
100 to 500 | O=C1CCC(N2Cc3ccc(CN4CCN(c5cccc(Cl)c5Cl)CC4)cc3C2=S)C(=O)N1 (stereo not drawn) [GT-05033, 3-(6-((4-(2,3-dichlorophenyl)piperazin-1-yl)methyl)-1-thioxoisoindolin-2-yl)piperidine-2,6-dione] | A (0% ≤ substrate protein remaining % ≤ 80%) | B (80%< substrate protein remaining %≤ 100%) | A (0% ≤ substrate protein remaining % ≤ 80%) | B (80%< substrate protein remaining %≤ 100%) | B (80%< substrate protein remaining %≤ 100%) | B (80%< substrate protein remaining %≤ 100%) | – | – | – | – | – | –
100 to 500 | O=C1CCC(N2Cc3ccc(CN4CCN(c5cccc6sccc56)CC4)cc3C2=S)C(=O)N1 (stereo not drawn) [GT-05035, 3-(6-((4-(benzo[b]thiophen-4-yl)piperazin-1-yl)methyl)-1-thioxoisoindolin-2-yl)piperidine-2,6-dione] | – | – | – | – | – | – | A (0% ≤ substrate protein remaining % ≤ 80%) | A (0% ≤ substrate protein remaining % ≤ 80%) | A (0% ≤ substrate protein remaining % ≤ 80%) | A (0% ≤ substrate protein remaining % ≤ 80%) | B (80%< substrate protein remaining %≤ 100%) | A (0% ≤ substrate protein remaining % ≤ 80%)
< 100 | Cc1cscc1N1CCN(Cc2ccc3c(c2)CN(C2CCC(=O)NC2=O)C3=S)CC1 (stereo not drawn) [GT-05113, 3-(5-((4-(4-methylthiophen-3-yl)piperazin-1-yl)methyl)-1-thioxoisoindolin-2-yl)piperidine-2,6-dione] | – | – | – | – | – | – | A (0% ≤ substrate protein remaining % ≤ 80%) | B (80%< substrate protein remaining %≤ 100%) | A (0% ≤ substrate protein remaining % ≤ 80%) | B (80%< substrate protein remaining %≤ 100%) | B (80%< substrate protein remaining %≤ 100%) | A (0% ≤ substrate protein remaining % ≤ 80%)

The remaining lines, values behind:

Structure (SMILES) | IC50 [1] [nM] | GSPT1 substrate protein remaining % (GSPT1; [2]) | Wee1 substrate protein remaining % (WEE1; [2]) | IKZF3 substrate protein remaining % (IKZF3; [2]) | IKZF2 substrate protein remaining % (IKZF2; [2]) | CK1α substrate protein remaining % (CK1α; [2]) | IKZF 1 substrate protein remaining % (IKZF1; [2]) | GSPT1 substrate protein remaining % (GSPT1; [3]) | Wee1 substrate protein remaining % (WEE1; [3]) | IKZF3 substrate protein remaining % (IKZF3; [3]) | IKZF2 substrate protein remaining % (IKZF2; [3]) | CK1α substrate protein remaining % (CK1α; [3]) | IKZF 1 substrate protein remaining % (IKZF1; [3])
Cc1ccsc1C1=CCN(Cc2ccc3c(c2)C(=S)N(C2CCC(=O)NC2=O)C3)CC1 (stereo not drawn) [GT-05032, 3-(6-((4-(3-methylthiophen-2-yl)-3,6-dihydropyridin-1(2H)-yl)methyl)-1-thioxoisoindolin-2-yl)piperidine-2,6-dione] | 100 to 500 | A (0% ≤ substrate protein remaining % ≤ 80%) | B (80%< substrate protein remaining %≤ 100%) | A (0% ≤ substrate protein remaining % ≤ 80%) | B (80%< substrate protein remaining %≤ 100%) | B (80%< substrate protein remaining %≤ 100%) | B (80%< substrate protein remaining %≤ 100%) | – | – | – | – | – | –
O=C1CCC(N2Cc3ccc(CN4CCN(C(c5ccccc5)c5ccccn5)CC4)cc3C2=S)C(=O)N1 (stereo not drawn) [GT-05041, 3-(6-((4-(phenyl(pyridin-2-yl)methyl)piperazin-1-yl)methyl)-1-thioxoisoindolin-2-yl)piperidine-2,6-dione] | 1500 to 1900 | – | – | – | – | – | – | A (0% ≤ substrate protein remaining % ≤ 80%) | B (80%< substrate protein remaining %≤ 100%) | B (80%< substrate protein remaining %≤ 100%) | B (80%< substrate protein remaining %≤ 100%) | B (80%< substrate protein remaining %≤ 100%) | A (0% ≤ substrate protein remaining % ≤ 80%)
O=C1CCC(N2Cc3cc(CN4CCC(c5noc6cc(F)ccc56)CC4)ccc3C2=S)C(=O)N1 (stereo not drawn) [GT-05089, 3-(5-((4-(6-fluorobenzo[d]isoxazol-3-yl)piperidin-1-yl)methyl)-1-thioxoisoindolin-2-yl)piperidine-2,6-dione] | < 100 | – | – | – | – | – | – | A (0% ≤ substrate protein remaining % ≤ 80%) | B (80%< substrate protein remaining %≤ 100%) | B (80%< substrate protein remaining %≤ 100%) | B (80%< substrate protein remaining %≤ 100%) | B (80%< substrate protein remaining %≤ 100%) | B (80%< substrate protein remaining %≤ 100%)
Cc1ccc(N2CCN(Cc3ccc4c(c3)CN(C3CCC(=O)NC3=O)C4=S)CC2)s1 (stereo not drawn) [GT-05110, 3-(5-((4-(5-methylthiophen-2-yl)piperazin-1-yl)methyl)-1-thioxoisoindolin-2-yl)piperidine-2,6-dione] | 100 to 500 | – | – | – | – | – | – | A (0% ≤ substrate protein remaining % ≤ 80%) | B (80%< substrate protein remaining %≤ 100%) | B (80%< substrate protein remaining %≤ 100%) | B (80%< substrate protein remaining %≤ 100%) | B (80%< substrate protein remaining %≤ 100%) | B (80%< substrate protein remaining %≤ 100%)
O=C1CCC(N2Cc3cc(CN4CCC(c5ccco5)CC4)ccc3C2=S)C(=O)N1 (stereo not drawn) [GT-05148, 3-(5-((4-(furan-2-yl)piperidin-1-yl)methyl)-1-thioxoisoindolin-2-yl)piperidine-2,6-dione] | 100 to 500 | – | – | – | – | – | – | A (0% ≤ substrate protein remaining % ≤ 80%) | B (80%< substrate protein remaining %≤ 100%) | B (80%< substrate protein remaining %≤ 100%) | B (80%< substrate protein remaining %≤ 100%) | B (80%< substrate protein remaining %≤ 100%) | B (80%< substrate protein remaining %≤ 100%)
CC1(C)CCC(CN2CCN(Cc3ccc4c(c3)CN(C3CCC(=O)NC3=O)C4=S)CC2)=C(c2ccc(Cl)cc2)C1 (stereo not drawn) [GT-05151, 3-(5-((4-((4'-chloro-5,5-dimethyl-3,4,5,6-tetrahydro-[1,1'-biphenyl]-2-yl)methyl)piperazin-1-yl)methyl)-1-thioxoisoindolin-2-yl)piperidine-2,6-dione] | 500 to 1000 | – | – | – | – | – | – | A (0% ≤ substrate protein remaining % ≤ 80%) | A (0% ≤ substrate protein remaining % ≤ 80%) | A (0% ≤ substrate protein remaining % ≤ 80%) | A (0% ≤ substrate protein remaining % ≤ 80%) | B (80%< substrate protein remaining %≤ 100%) | A (0% ≤ substrate protein remaining % ≤ 80%)
